The first assay deals with T1, vanilloid receptor 1 (VR1/TRPV1 receptor) (Homo sapiens, UniProt Q8NER1).
T1 construct: expressed in transfected cells; host or cells: CHO K1 cells (ECACC), stably transfected
T1 sequence (Q8NER1 whole entry): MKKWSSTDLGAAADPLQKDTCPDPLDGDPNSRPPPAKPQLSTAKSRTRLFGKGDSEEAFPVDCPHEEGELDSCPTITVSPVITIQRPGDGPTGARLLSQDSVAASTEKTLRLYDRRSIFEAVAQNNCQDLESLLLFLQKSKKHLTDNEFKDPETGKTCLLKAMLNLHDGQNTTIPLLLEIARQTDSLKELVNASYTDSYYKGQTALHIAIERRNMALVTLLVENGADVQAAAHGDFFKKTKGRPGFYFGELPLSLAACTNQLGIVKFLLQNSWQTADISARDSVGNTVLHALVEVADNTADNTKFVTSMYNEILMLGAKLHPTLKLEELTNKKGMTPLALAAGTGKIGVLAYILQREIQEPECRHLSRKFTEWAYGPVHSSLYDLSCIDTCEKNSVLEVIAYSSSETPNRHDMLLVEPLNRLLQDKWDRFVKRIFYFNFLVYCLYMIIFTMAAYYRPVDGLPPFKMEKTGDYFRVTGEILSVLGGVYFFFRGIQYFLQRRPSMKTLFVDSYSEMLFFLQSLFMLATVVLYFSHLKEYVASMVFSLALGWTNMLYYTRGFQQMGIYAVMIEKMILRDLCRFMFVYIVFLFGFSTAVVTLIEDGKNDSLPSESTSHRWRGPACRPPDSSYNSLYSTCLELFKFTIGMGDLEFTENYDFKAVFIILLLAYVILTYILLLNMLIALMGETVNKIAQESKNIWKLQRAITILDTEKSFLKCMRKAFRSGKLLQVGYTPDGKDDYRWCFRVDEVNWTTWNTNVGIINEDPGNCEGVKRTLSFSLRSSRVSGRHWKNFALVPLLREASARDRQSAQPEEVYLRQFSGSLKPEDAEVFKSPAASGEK
The assay is described as follows: Functional testing on vanilloid receptor 1: FLIPR Ca2+ influx assay against capsaicin (Cap) in transfected CHO K1 cells (pharmacological method II). As to Ki: 100 nM capsaicin. It counts as cell-based. Also noted: key to (f) Ki (human being) [nM] Cap: agonist classification: AG = agonist. Particulars: @ 1µM; human VR1 in CHO K1 cells; capsaicin; relative to maximum inhibition with 10 µM capsazepine; read-out: inhibition (as a percentage), printed in column (f) Ki (human being) [nM] Cap.
Text: […]
By inhibition is commonly meant the change of the read-out against control, counted positive when it falls. Take `CC(C)(C)c1cc(CNC(=O)Nc2ccc(COCCO)c(F)c2)n(-c2ccc(F)cc2)n1` [A134, 1-[[5-tert-Butyl-2-(4-fluorophenyl)-2H-pyrazol-3-yl]-methyl]-3-[3-fluoro-4-(2-hydroxy-ethoxy-methyl)-phenyl]-urea]: the inhibition at 1 µM came out at 23%.

The same assay, now with this note: @ 5µM; human VR1 in CHO K1 cells; capsaicin; relative to maximum inhibition with 10 µM capsazepine; read-out: inhibition (as a percentage), printed in column (f) Ki (human being) [nM] Cap.
Regarding `CC(C)(C)c1cc(CNC(=O)Nc2ccc(C(CO)CO)c(F)c2)n(-c2cccc(Cl)c2)n1` [A152, 1-[[5-tert-Butyl-2-(3-chlorophenyl)-2H-pyrazol-3-yl]-methyl]-3-[3-fluoro-4-[2-hydroxy-1-(hydroxymethyl)-ethyl]-phenyl]-urea], the inhibition at 5 µM was found to be 39%.

Still in this assay, the particulars now being: human VR1 in CHO K1 cells; AG printed instead of a Ki.
Regarding `COc1c(F)cc(C(C)C(=O)NCc2cc(C(C)(C)C)nn2-c2ccc(F)c(Cl)c2)cc1F` (stereo not drawn) [A5, N-[[5-tert-Butyl-2-(3-chloro-4-fluoro-phenyl)-2H-pyrazol-3-yl]-methyl]-2-(3,5-difluoro-4-methoxy-phenyl)-propionamide], the “(f) Ki (human being) [nM] Cap: agonist classification” value was “AG”.

Still in this assay, the particulars now being: read-out: (f) Ki (human being) [nM] Cap.
Broadly, the Ki is the equilibrium dissociation constant of an inhibitor or competing ligand from its target. Take `O=C(NCc1cc(C(F)(F)F)nn1-c1ccccc1)Nc1ccc(CO)c(F)c1` [A58, 1-[3-Fluoro-4-(hydroxymethyl)-phenyl]-3-[[2-phenyl-5-(trifluoromethyl)-2H-pyrazol-3-yl]-methyl]-urea]: the inhibition constant (Ki) turned out to be 6 nM. Same read-out and setting: for `O=C(NCc1cc(C2CC2)nn1-c1cccc(Cl)c1)Nc1ccc(CO)c(F)c1` [A53, 1-[[2-(3-Chlorophenyl)-5-cyclopropyl-2H-pyrazol-3-yl]-methyl]-3-[3-fluoro-4-(hydroxymethyl)-phenyl]-urea] the value was 18 nM. Turning to `COc1cc(C(C)C(=O)NCc2cc(C(F)(F)F)nn2-c2cccc(Cl)c2)ccc1CO` (stereo not drawn) [A50, N-[[2-(3-Chlorophenyl)-5-(trifluoromethyl)-2H-pyrazol-3-yl]-methyl]-2-[4-(hydroxymethyl)-3-methoxy-phenyl]-propionamide], the Ki is 1 nM. Consider `Cc1cccc(-n2nc(C(C)(C)C)cc2CNC(=O)Nc2ccc(CO)c(F)c2)c1` [A56, 1-[[5-tert-Butyl-2-(m-tolyl)-2H-pyrazol-3-yl]-methyl]-3-[3-fluoro-4-(hydroxymethyl)-phenyl]-urea], for which the inhibitory constant (Ki) was 2 nM. Still for that read-out and setting: then `COc1c(F)cc(CC(=O)NCc2cc(C(C)(C)C)nn2-c2ccc(F)c(Cl)c2)cc1F` [A6, N-[[5-tert-Butyl-2-(3-chloro-4-fluoro-phenyl)-2H-pyrazol-3-yl]-methyl]-2-(3,5-difluoro-4-methoxy-phenyl)-acetamide], with 14 nM; and `Cc1ccccc1-n1nc(C(F)(F)F)cc1CNC(=O)Nc1ccc(CO)c(F)c1` [A69, 1-[3-Fluoro-4-(hydroxymethyl)-phenyl]-3-[[2-(o-tolyl)-5-(trifluoromethyl)-2H-pyrazol-3-yl]-methyl]-urea], with 45 nM. `Cc1cc(-n2nc(C(F)(F)F)cc2CNC(=O)Nc2ccc(CO)c(F)c2)ccc1C#N` [A81, 1-[[2-(4-Cyano-3-methyl-phenyl)-5-(trifluoromethyl)-2H-pyrazol-3-yl]-methyl]-3-[3-fluoro-4-(hydroxymethyl)-phenyl]-urea]: the inhibition constant (Ki) is 21 nM.

Turning to `CC(C(=O)NCc1cc(C(F)(F)F)nn1-c1cccc(F)c1)c1ccc(COCCO)c(F)c1` (stereo not drawn) [A122, 2-[3-Fluoro-4-(2-hydroxy-ethoxy-methyl)-phenyl]-N-[[2-(3-fluorophenyl)-5-(trifluoromethyl)-2H-pyrazol-3-yl]-methyl]-propionamide], the Ki was found to be 45 nM. The same measure, in the same setting: then `COCc1cccc(-n2nc(C(F)(F)F)cc2CNC(=O)Nc2ccc(CO)c(F)c2)c1` [A84, 1-[3-Fluoro-4-(hydroxymethyl)-phenyl]-3-[[2-[3-(methoxymethyl)-phenyl]-5-(trifluoromethyl)-2H-pyrazol-3-yl]-methyl]-urea], with 53 nM.

As to `O=C(NCc1cc(C(F)(F)F)nn1-c1ccc(Cl)cc1)Nc1ccc(CO)c(F)c1` [A60, 1-[[2-(4-Chlorophenyl)-5-(trifluoromethyl)-2H-pyrazol-3-yl]-methyl]-3-[3-fluoro-4-(hydroxymethyl)-phenyl]-urea], the Ki worked out at 10 nM. Same read-out and setting: for `CC(C)c1cccc(-n2nc(C(F)(F)F)cc2CNC(=O)C(C)c2ccc(COCCO)c(F)c2)c1` (stereo not drawn) [A115, 2-[3-Fluoro-4-(2-hydroxy-ethoxy-methyl)-phenyl]-N-[[2-(3-isopropyl-phenyl)-5-(trifluoromethyl)-2H-pyrazol-3-yl]-methyl]-propionamide] the value was 3 nM.

`COc1c(C)cccc1-n1nc(C(F)(F)F)cc1CNC(=O)Nc1ccc(CO)c(F)c1` [A94, 1-[3-Fluoro-4-(hydroxymethyl)-phenyl]-3-[[2-(2-methoxy-3-methyl-phenyl)-5-(trifluoromethyl)-2H-pyrazol-3-yl]-methyl]-urea]: the inhibitory constant (Ki) came to 30 nM. Regarding `O=C(Cc1ccc(COCCO)c(F)c1)NCc1cc(C(F)(F)F)nn1-c1cccc(Cl)c1` [A113, N-[[2-(3-Chlorophenyl)-5-(trifluoromethyl)-2H-pyrazol-3-yl]-methyl]-2-[3-fluoro-4-(2-hydroxy-ethoxy-methyl)-phenyl]-acetamide], the Ki worked out at 63 nM. On the same count and under the same terms, for `Cc1cccc(-n2nc(C(F)(F)F)cc2CNC(=O)Nc2ccc(CO)c(F)c2)c1F` [A76, 1-[3-Fluoro-4-(hydroxymethyl)-phenyl]-3-[[2-(2-fluoro-3-methyl-phenyl)-5-(trifluoromethyl)-2H-pyrazol-3-yl]-methyl]-urea] the value was 41 nM.

Take `Cc1ccc(-n2nc(C(F)(F)F)cc2CNC(=O)Nc2ccc(CO)c(F)c2)cc1C` [A75, 1-[[2-(3,4-Dimethyl-phenyl)-5-(trifluoromethyl)-2H-pyrazol-3-yl]-methyl]-3-[3-fluoro-4-(hydroxymethyl)-phenyl]-urea]: the inhibition constant (Ki) worked out at 19 nM. The same measure, in the same setting: for `COCCOc1ccc(NC(=O)NCc2cc(C(F)(F)F)nn2-c2cccc(Cl)c2)cc1F` [A18, 1-[[2-(3-Chlorophenyl)-5-(trifluoromethyl)-2H-pyrazol-3-yl]-methyl]-3-[3-fluoro-4-(2-methoxy-ethoxy)-phenyl]-urea] the value was 68 nM.

Consider `COCCOCc1ccc(NC(=O)NCc2cc(C(F)(F)F)nn2-c2cccc(Cl)c2)cc1F` [A128, 1-[[2-(3-Chlorophenyl)-5-(trifluoromethyl)-2H-pyrazol-3-yl]-methyl]-3-[3-fluoro-4-(2-methoxy-ethoxy-methyl)-phenyl]-urea], for which the inhibitory constant (Ki) is 67 nM.

Consider `CC(C)(C)c1cc(CNC(=O)Nc2ccc(C(O)CO)c(F)c2)n(-c2cccc(Cl)c2)n1` (stereo not drawn) [A150, 1-[[5-tert-Butyl-2-(3-chlorophenyl)-2H-pyrazol-3-yl]-methyl]-3-[4-(1,2-dihydroxy-ethyl)-3-fluoro-phenyl]-urea], for which the inhibition constant (Ki) was 19 nM. The same measure, in the same setting: then `CC(C(=O)NCc1cc(C(F)(F)F)nn1-c1cccc(Cl)c1)c1ccc(C(O)CO)cc1` (stereo not drawn) [A146, N-[[2-(3-Chlorophenyl)-5-(trifluoromethyl)-2H-pyrazol-3-yl]-methyl]-2-[4-(1,2-dihydroxy-ethyl)-phenyl]-propionamide], with 13 nM; and `CC(C)c1cccc(-n2nc(C(F)(F)F)cc2CNC(=O)C(C)c2ccc(CO)c(F)c2)c1` (stereo not drawn) [A44, 2-[3-Fluoro-4-(hydroxymethyl)-phenyl]-N-[[2-(3-isopropyl-phenyl)-5-(trifluoromethyl)-2H-pyrazol-3-yl]-methyl]-propionamide], with 0.2 nM. Same read-out and setting: then `CC(C(=O)NCc1cc(C(C)(C)C)nn1-c1cccc(Cl)c1)c1ccc(COCCO)c(F)c1` (stereo not drawn) [A117, N-[[5-tert-Butyl-2-(3-chlorophenyl)-2H-pyrazol-3-yl]-methyl]-2-[3-fluoro-4-(2-hydroxy-ethoxy-methyl)-phenyl]-propionamide], with 9 nM.

These data come from patent EP2776398B1, “SUBSTITUTED PYRAZOLYL-BASED UREA DERIVATIVES AS VANILLOID RECEPTOR LIGANDS” (Medifron DBT Inc., priority 2011, dated 2013).
